In the supplement of paper PMC7840683:
Structures can show the parent of a compound that is named as a salt. ± gives the standard deviation of the averaged measurements.

Test system: HepaRG
Assay: LDH release cytotoxicity, % of total lysis control; higher = more cytotoxic
Details: 48 h
Outline: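 Single-lot HepaRG cells in collagen I-coated 96-well plates were treated for 48 h in serum-free induction medium containing 0.5% DMSO with test chemicals in eight-point half-log series up to 100 µM. For total lysis, wells received 0.1% Triton X. LDH in 50 µL spent medium was assayed by resorufin fluorescence with CytoTox-ONE. Percent cytotoxicity was normalized to the on-plate vehicle and total lysis controls, with duplicates averaged.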

Row | SMILES | LDH release cytotoxicity (0.03162 µM) | LDH release cytotoxicity (0.1 µM) | LDH release cytotoxicity (0.3162278 µM) | LDH release cytotoxicity (1 µM) | LDH release cytotoxicity (3.16228 µM) | LDH release cytotoxicity (10 µM) | LDH release cytotoxicity (31.6228 µM) | LDH release cytotoxicity (100 µM) | further results
1 | COc1cc(S(=O)(=O)O)c(C)cc1N=Nc1c(O)ccc2cc(S(=O)(=O)O)ccc12 | -0.0925 ± 0.66% | -0.495 ± 0.4% | -0.745 ± 0.75% | -1.36 ± 1.1% | -1.42 ± 0.71% | -1.6 ± 0.25% | -1.96 ± 0.065% | -2.81 ± 0.42% | –
2 | CCC(=C(CC)c1ccc(O)cc1)c1ccc(O)cc1 [Diethylstilbestrol] | – | -0.295 ± 1.4% | – | -2.18 ± 0.15% | -2.64 ± 1.2% | -2.24 ± 0.36% | -0.817 ± 0.032% | 0.74 ± 1.1% | LDH release cytotoxicity (0.031623 µM): -1.08 ± 0.25%; LDH release cytotoxicity (0.316228 µM): -1.31 ± 0.079%
3 | O=S(=O)(O)C(F)(F)C(F)(F)C(F)(F)C(F)(F)C(F)(F)C(F)(F)C(F)(F)C(F)(F)F [Perfluorooctanesulfonic acid] | -1.36 ± 0.32% | -1.86 ± 0.5% | -1.14 ± 0.19% | -1.91 ± 0.49% | -1.26 ± 0.23% | -2 ± 0.026% | -0.893 ± 0.12% | 19.6 ± 3.8% | –
4 | C=CCc1cc(S(=O)(=O)c2ccc(O)c(CC=C)c2)ccc1O [4,4'-Sulfonylbis[2-(prop-2-en-1-yl)phenol]] | -0.87 ± 0.11% | -2.88 ± 0.65% | -1.86 ± 0.44% | -2.39 ± 0.7% | -2.01 ± 0.34% | -1.55 ± 0.91% | -1.16 ± 0.93% | 0.193 ± 0.0097% | –
5 | NC(=O)N=NCc1ccc([N+](=O)[O-])o1 [Nitrofurazone] | -0.299 ± 0.59% | -1.51 ± 0.4% | -1.48 ± 0.51% | -1.87 ± 0.52% | -1.76 ± 0.92% | -0.788 ± 0.29% | -0.997 ± 0.33% | 0.128 ± 0.43% | –
6 | CN(C)C(=O)Nc1cccc(C(F)(F)F)c1 [Fluometuron] | -0.415 ± 0.25% | -0.308 ± 0.37% | -0.631 ± 0.97% | -0.564 ± 1.4% | -0.69 ± 0.18% | 0.366 ± 0.1% | -0.569 ± 0.084% | 0.377 ± 0.36% | –
7 | CC1=NC(=O)N(C(C)(C)C)C(=O)C1Cl (centres undefined) [Terbacil] | – | -3.63 ± 0.95% | – | -3.38 ± 0.33% | -2.68 ± 1.1% | -2.77 ± 0.39% | -1.74 ± 0.92% | 2.1 ± 0.37% | LDH release cytotoxicity (0.031623 µM): -1.65 ± 0.11%; LDH release cytotoxicity (0.316228 µM): -2.5 ± 0.94%
8 | Cc1nc[nH]c1CC1CCc2c(C)c3ccccc3n2C1=O (centres undefined) [Fabesetron hydrochloride] | – | – | – | – | – | – | – | – | LDH release cytotoxicity (0.0281443 µM): -1.11 ± 1.1%; LDH release cytotoxicity (0.089 µM): -1.43 ± 0.83%; LDH release cytotoxicity (0.281443 µM): -1.19 ± 0.51%; LDH release cytotoxicity (0.89 µM): -1.4 ± 0.97%; LDH release cytotoxicity (2.81443 µM): -1.38 ± 1.2%; LDH release cytotoxicity (8.9 µM): -0.0311 ± 2%; LDH release cytotoxicity (28.144271 µM): 43.7 ± 4.9%; LDH release cytotoxicity (89 µM): 76.2 ± 2.1%
9 | O=C(O)c1nc(Cl)ccc1Cl [Clopyralid] | -0.598 ± 0.35% | -1.08 ± 0.48% | -0.606 ± 0.19% | -1.03 ± 0.57% | -0.337 ± 0.046% | 0.0712 ± 0.39% | 0.653 ± 1.2% | 2.21 ± 0.38% | –
10 | c1ccc2cc3ccccc3cc2c1 [Anthracene] | – | -2.92 ± 1.7% | – | -2.01 ± 1.3% | -2.51 ± 0.11% | -2.69% | -1.53 ± 1.4% | 2.42 ± 3.7% | LDH release cytotoxicity (0.031623 µM): -2.31 ± 1.3%; LDH release cytotoxicity (0.316228 µM): -3.34 ± 0.24%
11 | Nc1ccc(C(=O)O)cc1 [4-Aminobenzoic acid] | – | -1.2 ± 2.3% | – | -2.3 ± 1.1% | -2.47 ± 0.28% | -1.41 ± 0.43% | -0.777 ± 0.61% | 1.93 ± 0.47% | LDH release cytotoxicity (0.031623 µM): -2.09 ± 0.27%; LDH release cytotoxicity (0.316228 µM): -0.757 ± 1.4%
12 | CC(C)[O-].CC(C)[O-].[O-]CCN(CCO)CCO.[O-]CCN(CCO)CCO.[Ti+4] [Isopropyl triethanolamine titanate] | -5.22 ± 4.5% | -1.09 ± 0.96% | -0.881 ± 0.2% | -0.333 ± 0.037% | 0.622 ± 0.39% | 0.156 ± 1.4% | 0.0089 ± 0.55% | 0.6851 ± 0.0067% | –
13 | Clc1ccccc1C(c1ccccc1)(c1ccccc1)n1ccnc1 [Clotrimazole] | -0.964 ± 0.54% | -0.87 ± 0.1% | -1.49 ± 0.34% | -1.36 ± 0.98% | -0.966 ± 0.17% | 4.28 ± 0.79% | 11.6 ± 2.4% | 82.1 ± 1.4% | –
14 | CCCCCCCCOC(=O)c1cc(O)c(O)c(O)c1 [Octyl gallate] | -1.14 ± 0.66% | -0.159 ± 0.23% | -0.124 ± 0.33% | -0.776 ± 1.1% | 0.219 ± 0.33% | -0.238 ± 0.52% | -1.86 ± 0.4% | 2.05 ± 1.3% | –
15 | CC(C)c1ccc(C(=O)N=C(N)N)cc1S(C)(=O)=O [Cariporide mesylate] | – | – | – | – | – | – | – | – | LDH release cytotoxicity (0.02356 µM): -0.0357 ± 0.59%; LDH release cytotoxicity (0.0745 µM): -1.69 ± 0.56%; LDH release cytotoxicity (0.23559 µM): -0.975 ± 1.1%; LDH release cytotoxicity (0.745 µM): -1.41 ± 0.45%; LDH release cytotoxicity (2.3559 µM): -0.944 ± 0.16%; LDH release cytotoxicity (7.45 µM): -0.838 ± 0.12%; LDH release cytotoxicity (23.559 µM): -1.46 ± 0.13%; LDH release cytotoxicity (74.5 µM): -0.256 ± 0.4%
16 | O=[N+]([O-])c1ccccc1 [Nitrobenzene] | -0.035 ± 0.65% | -0.746 ± 0.34% | -0.739 ± 0.36% | -0.928 ± 0.55% | -1.24 ± 0.27% | -0.372 ± 0.35% | -0.298 ± 1.3% | 1.13 ± 0.81% | –
17 | C=CCOC(Cn1ccnc1)c1ccc(Cl)cc1Cl (centres undefined) [Imazalil] | -1.02 ± 1.2% | -0.85 ± 0.77% | -0.00888 ± 0.2% | -0.601 ± 1.6% | -0.652 ± 0.76% | 0.29 ± 0.16% | 8.422 ± 0.022% | 69.6 ± 12% | –
18 | CC(C)(C)C(O)C(Oc1ccc(Cl)cc1)n1cncn1 (centres undefined) [Triadimenol] | -1.62 ± 0.58% | -2.06 ± 0.53% | -1.64 ± 1.5% | -1.25 ± 0.42% | -1.3 ± 0.73% | -0.0607 ± 0.57% | -0.253 ± 0.65% | 0.57 ± 0.18% | –
